Assay [1] deals with two-spotted spider mites. As to the kind of experiment: Miticidal test on two-spotted spider mite (leaf spray). The class given is in vivo. Conditions: Tetranychus urticae, in Phaseolus vulgaris, 48 h, read-out: Mortality of mites (%). The source says:
A piece of non-woven fabric (4.5×5.5 cm) was suspended inside a plastic cup through an incision made in the lid of the plastic cup. After water was poured into the cup, the cup was covered with the lid. A kidney bean leaf (about 3.5×4.5 cm) was then placed on the sufficiently soaked, non-woven fabric. Another kidney bean leaf with two-spotted spider mites (about 30 mite samples) was placed on top of the first leaf, and the fabric and leaves were placed in a thermostatic chamber having a temperature of 25±2° C. and a humidity of 40% overnight. Next morning the top leaf was removed as the mite population had already moved to the lower leaf.
Miticidal formulations containing the compound of the invention (100 ppm and 5 ppm) were prepared by adding an aqueous solution (100 ppm) of Sorpol 355 (manufactured by Tobo Kagaku Co., Ltd.) to a methanol solution of the compound of the invention. These miticidal formulations were sprayed onto the leaves, and the leaves were air-dried and placed in a thermostatic chamber (25±2° C. and a humidity of 50%). The mortality rate of the two-spotted spider mites was calculated after 2 days.

For assay [2], the system named is two-spotted spider mites. As to the kind of experiment: Ovicidal test on two-spotted spider mites. The class given is in vivo, two-spotted spider mite. Conditions: Tetranychus urticae, 144 h; 10 ppm spray, ovicidal rate 6 days after spraying. Here is the method: A piece of non-woven fabric (4.5×5.5 cm) was suspended inside a plastic cup through an incision made in the lid of the plastic cup. After water was poured into the cup, the cup was covered with the lid. A kidney bean leaf (about 3.5×4.5 cm) was then placed on the sufficiently soaked, non-woven fabric. Twenty female adults of two-spotted spider mite were placed on the top of the leaf, and the fabric and leaf were placed in a thermostatic chamber having a temperature of 25±2° C. and a humidity of 40% and 16L8D. The next day, after the number of the female adults was adjusted once more to 20, 2 mL of a miticidal formulation containing the compound of the invention (10 ppm) prepared in the same manner as in test example 1 was sprayed onto the leaf, and the leaf was air-dried and placed in a thermostatic chamber (25±2° C. and a humidity of 50%). The ovicidal rate of the two-spotted spider mites was calculated 6 days after the spraying of the miticidal formulation.

Structures are written as SMILES.

This note sets out measurements from US11116218B2, “Isoxazole compound or a salt thereof” (OAT AGRIO CO., LTD., priority 2017, dated 2021).

In the case of `Cc1cc(F)c(-c2cc(C(F)(F)Cl)on2)cc1[S+]([O-])CC(F)(F)F` (stereo not drawn) [Compound 17, 5-(chlorodifluoromethyl)-3-(2-fluoro-4-methyl-5-((2,2,2-trifluoroethyl)sulfinyl)phenyl)isoxazole], in assay [1], the mortality at 5 ppm was found to be 98% and the mortality at 100 ppm came out at 100%. Further, the inhibition at 10 ppm in assay [2] came to 100%.
Regarding `Cc1cc(F)c(-c2cc(C(F)(F)C(F)(F)F)on2)cc1[S+]([O-])CC(F)(F)F` (stereo not drawn) [Compound 5, 3-(2-fluoro-4-methyl-5-((2,2,2-trifluoroethyl)sulfinyl)phenyl)-5-(perfluoroethyl)isoxazole], in assay [1], the mortality at 5 ppm was 95% and the mortality at 100 ppm was found to be 100%. In addition, in assay [2], the inhibition at 10 ppm is 90%.
The like results for `Cc1cc(F)c(-c2noc(C(F)(F)F)c2C)cc1[S+]([O-])CC(F)(F)F` (stereo not drawn) [Compound 38, 3-(2-fluoro-4-methyl-5-((2,2,2-trifluoroethyl)sulfinyl)phenyl)-4-methyl-5-(trifluoromethyl)isoxazole] were, in that order, 100%, 100% and 100%.
On the same counts, the results for `Cc1cc(C)c([S+]([O-])CC(F)(F)F)cc1-c1cc(C(F)F)on1` (stereo not drawn) [Compound 47, 5-(difluoromethyl)-3-(2,4-dimethyl-5-((2,2,2-trifluoroethyl)sulfinyl)phenyl)isoxazole] are 51%, 100% and 80%.
On the same counts, the results for `Cc1cc(F)c(-c2cc(C(F)(F)c3ccccc3)on2)cc1[S+]([O-])CC(F)(F)F` (stereo not drawn) [Compound 20, 5-(difluoro(phenyl)methyl)-3-(2-fluoro-4-methyl-5-((2,2,2-trifluoroethyl)sulfinyl)phenyl)isoxazole] are 93%, 100% and 95%.
Consider `CCC[S+]([O-])c1cc(-c2cc(C(F)(F)F)on2)c(F)cc1C` (stereo not drawn) [Compound 35, 3-(2-fluoro-4-methyl-5-(propylsulfinyl)phenyl)-5-(trifluoromethyl)isoxazole], for which, in assay [1], the mortality at 5 ppm was found to be 100% and the mortality at 100 ppm worked out at 100%. The compound further showed an inhibition at 10 ppm in assay [2] of 100%.
Turning to `Cc1cc(F)c(-c2cc(C(F)F)on2)cc1SCC(F)(F)F` [Compound 13, 5-(difluoromethyl)-3-(2-fluoro-4-methyl-5-((2,2,2-trifluoroethyl)thio)phenyl)isoxazole], in assay [1], the mortality at 5 ppm is 48% and the mortality at 100 ppm was 100%. Moreover, the inhibition at 10 ppm in assay [2] came to 98%.
On the same counts, the results for `Cc1cc(C)c(-c2cc(C(F)F)on2)cc1SCC(F)(F)F` [Compound 46, 5-(difluoromethyl)-3-(2,4-dimethyl-5-((2,2,2-trifluoroethyl)thio)phenyl)isoxazole] are 79%, 100% and 83%.
The like results for `Cc1cc(Cl)c(-c2cc(C(F)(F)Cl)on2)cc1[S+]([O-])CC(F)(F)F` (stereo not drawn) [Compound 44, 3-(2-chloro-4-methyl-5-((2,2,2-trifluoroethyl)sulfinyl)phenyl)-5-(chlorodifluoromethyl)isoxazole] were, in that order, 100%, 100% and 100%.
On the same counts, the results for `Cc1cc(Cl)c(-c2cc(C(F)F)on2)cc1SCC(F)(F)F` [Compound 55, 3-(2-chloro-4-methyl-5-((2,2,2-trifluoroethyl)thio)phenyl)-5-(difluoromethyl)isoxazole] are 100%, 100% and 100%.
With `Cc1ccc(-c2cc(C(F)(F)F)on2)cc1SCC(F)(F)F` [Compound A, reference compound], in assay [1], the mortality at 5 ppm was determined as 0% and the mortality at 100 ppm was 100%. In assay [2], this compound returned an inhibition at 10 ppm of 0%.
As to `Cc1cc(Cl)c(-c2cc(C(F)(F)Cl)on2)cc1SCC(F)(F)F` [Compound 43, 3-(2-chloro-4-methyl-5-((2,2,2-trifluoroethyl)thio)phenyl)-5-(chlorodifluoromethyl)isoxazole], in assay [1], the mortality at 5 ppm was found to be 100% and the mortality at 100 ppm came out at 100%. The compound also had an inhibition at 10 ppm in assay [2] of 100%.
In the case of `Cc1cc(F)c(-c2cc(C(F)F)on2)cc1[S+]([O-])CC(F)(F)F` (stereo not drawn) [Compound 14, 5-(difluoromethyl)-3-(2-fluoro-4-methyl-5-((2,2,2-trifluoroethyl)sulfinyl)phenyl)isoxazole], in assay [1], the mortality at 5 ppm was 40% and the mortality at 100 ppm is 100%. The same compound showed an inhibition at 10 ppm in assay [2] of 50%.
As for `Cc1cc(Cl)c(-c2cc(C(F)F)on2)cc1[S+]([O-])CC(F)(F)F` (stereo not drawn) [Compound 56, 3-(2-chloro-4-methyl-5-((2,2,2-trifluoroethyl)sulfinyl)phenyl)-5-(difluoromethyl)isoxazole], in assay [1], the mortality at 5 ppm came out at 100% and the mortality at 100 ppm worked out at 100%. Moreover, in assay [2], testing at 10 ppm gave an inhibition of 100%.
Take `Cc1cc(F)c(-c2cc(C(F)(F)F)on2)cc1[S+]([O-])CC(F)(F)F` (stereo not drawn) [Compound 2, 3-(2-fluoro-4-methyl-5-((2,2,2-trifluoroethyl)sulfinyl)phenyl)-5-(trifluoromethyl)isoxazole]: in assay [1], the mortality at 5 ppm came out at 100% and the mortality at 100 ppm is 100%. Besides, the inhibition at 10 ppm in assay [2] was 100%.
Turning to `Cc1cc(C)c([S+]([O-])CC(F)(F)F)cc1-c1cc(C(F)(F)F)on1` (stereo not drawn) [Compound 26, 3-(2,4-dimethyl-5-((2,2,2-trifluoroethyl)sulfinyl)phenyl)-5-(trifluoromethyl)isoxazole], in assay [1], the mortality at 5 ppm is 98% and the mortality at 100 ppm turned out to be 100%. Also, in assay [2], the inhibition at 10 ppm was found to be 90%.

Broadly, the mortality is the percentage killed. As usually defined, the inhibition is the relative decrease from the control value, in per cent. Low readings indicate a weak effect, high ones a strong effect.
